Reference: PubChem BioAssay (NCI)
Where “and” joins values, the source holds several entries; their conditions need not be identical. Identical values can stand only once.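 Results reflect a 48-hour exposure of cells in 96-well plates to compound at five concentrations. GI50 is the concentration that inhibits growth by half. Definition used: TGI = concentration required for complete inhibition of growth.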

test system: SN12C renal; assay: inhibition of tumour cell growth, NCI panel, 48 h

With Cn1cc(-c2nc(N[C@@H]3CCCC[C@@H]3N)c(F)c3c2C(=O)NC3)cn1 the GI50 was 3.61 µM and 3.8 µM.
O=C(NOCCO)c1cc(CN2OCCCC2=O)c(F)c(F)c1Nc1ccc(I)cc1F was tested, and the GI50 was 2.15 µM and 2.17 µM.

Cn1cc(-c2nc(N[C@@H]3CCCC[C@@H]3N)c(F)c3c2C(=O)NC3)cn1 and O=C(NOCCO)c1cc(CN2OCCCC2=O)c(F)c(F)c1Nc1ccc(I)cc1F cannot be ordered by TGI: greater than 100 µM for the first, greater than 100 µM for the second.

O=C(/C=C/c1ccco1)c1ccc(Nc2nc(Nc3ccc(F)cc3)nc(Nc3ccc(F)cc3)n2)cc1 and CCCN1CCC=C(c2ccc(Nc3nc(Nc4ccccc4C(N)=O)c4cc[nH]c4n3)c(C)c2)C1 cannot be ordered by TGI: greater than 100 µM for the first, greater than 25 µM for the second.

CN(C(=O)CNC(=O)/C=C/c1cccc(Cl)c1)C1CCS(=O)(=O)CC1 and O=C(/C=C/c1cccc2ccccc12)Nc1ncc(Cc2ccccc2)s1 cannot be ordered by TGI: greater than 100 µM for the first, greater than 100 µM for the second.

Point of comparison: O=C(/C=C/c1ccco1)c1ccc(Nc2nc(Nc3ccc(F)cc3)nc(Nc3ccc(F)cc3)n2)cc1, GI50 54.8 µM. Against it:
- CN(C(=O)CNC(=O)/C=C/c1cccc(Cl)c1)C1CCS(=O)(=O)CC1 — 18-fold lower, 2.99 µM
- O=C(/C=C/c1cccc2ccccc12)Nc1ncc(Cc2ccccc2)s1 — 47-fold lower, 1.16 µM
- CCCN1CCC=C(c2ccc(Nc3nc(Nc4ccccc4C(N)=O)c4cc[nH]c4n3)c(C)c2)C1 — not separable, > 21.1 µM

test system: U251 CNS; assay: inhibition of tumour cell growth, NCI panel, 48 h

Point of comparison: CCCCCCCCCCSC(=N)N, GI50 2.37 µM. Against it:
- COc1cccc2c1cc1c3c(cc4c(c32)OCO4)C(=O)N1 — 2.4-fold higher, 5.78 µM
- Cc1c(Cl)cccc1NC(=O)c1sc2nc3c(cc2c1N)CCCC3 — 4.7-fold lower, 0.504 µM
- O=C1/C(=C\c2ccccc2)C2OCC=C3CN4CCC56c7ccccc7N1C5C2C3CC46 (stereo unspecified) — 5.5-fold higher, 13.1 µM
- COc1ccc2c(c1)/C(=N/OC(C)=O)c1c-2cnc2ccccc12 — 8.1-fold higher, 19.3 µM
- O=C(/C=C/c1ccco1)c1ccc(Nc2nc(Nc3ccc(F)cc3)nc(Nc3ccc(F)cc3)n2)cc1 — 9.1-fold higher, 21.6 µM
- CN(C(=O)CNC(=O)/C=C/c1cccc(Cl)c1)C1CCS(=O)(=O)CC1 — 17-fold higher, 39.5 µM
- O=C(/C=C/c1cccc2ccccc12)Nc1ncc(Cc2ccccc2)s1 — 2.9-fold lower, 0.818 µM
- CCCN1CCC=C(c2ccc(Nc3nc(Nc4ccccc4C(N)=O)c4cc[nH]c4n3)c(C)c2)C1 — 4.1-fold higher, 9.78 µM

Point of comparison: O=C(/C=C/c1cccc2ccccc12)Nc1ncc(Cc2ccccc2)s1, TGI 4.67 µM. Against it:
- COc1cccc2c1cc1c3c(cc4c(c32)OCO4)C(=O)N1 — 4.5-fold higher, 21.1 µM
- Cc1c(Cl)cccc1NC(=O)c1sc2nc3c(cc2c1N)CCCC3 — higher, > 100 µM
- O=C1/C(=C\c2ccccc2)C2OCC=C3CN4CCC56c7ccccc7N1C5C2C3CC46 (stereo unspecified) — higher, > 100 µM
- COc1ccc2c(c1)/C(=N/OC(C)=O)c1c-2cnc2ccccc12 — 8.4-fold higher, 39.4 µM
- CCCCCCCCCCSC(=N)N — within 1.5-fold, 6.72 µM
- O=C(/C=C/c1ccco1)c1ccc(Nc2nc(Nc3ccc(F)cc3)nc(Nc3ccc(F)cc3)n2)cc1 — 9-fold higher, 42.2 µM
- CN(C(=O)CNC(=O)/C=C/c1cccc(Cl)c1)C1CCS(=O)(=O)CC1 — higher, > 100 µM
- CCCN1CCC=C(c2ccc(Nc3nc(Nc4ccccc4C(N)=O)c4cc[nH]c4n3)c(C)c2)C1 — higher, > 25 µM

In the case of Cn1cc(-c2nc(N[C@@H]3CCCC[C@@H]3N)c(F)c3c2C(=O)NC3)cn1, the GI50 is reported as 15.3 µM.
For O=C(NOCCO)c1cc(CN2OCCCC2=O)c(F)c(F)c1Nc1ccc(I)cc1F, the GI50 was 0.362 µM and 0.479 µM.

For Cn1cc(-c2nc(N[C@@H]3CCCC[C@@H]3N)c(F)c3c2C(=O)NC3)cn1, the TGI was 33.9 µM and 36.3 µM.
O=C(NOCCO)c1cc(CN2OCCCC2=O)c(F)c(F)c1Nc1ccc(I)cc1F was tested, and the TGI was 23.8 µM and > 10 µM.

test system: 786-0 renal; assay: inhibition of tumour cell growth, NCI panel, 48 h

Point of comparison: CCCN1CCC=C(c2ccc(Nc3nc(Nc4ccccc4C(N)=O)c4cc[nH]c4n3)c(C)c2)C1, GI50 17.3 µM. Against it:
- COc1cccc2c1cc1c3c(cc4c(c32)OCO4)C(=O)N1 — 2.4-fold lower, 7.15 µM
- Cc1c(Cl)cccc1NC(=O)c1sc2nc3c(cc2c1N)CCCC3 — 25-fold lower, 0.681 µM
- O=C1/C(=C\c2ccccc2)C2OCC=C3CN4CCC56c7ccccc7N1C5C2C3CC46 (stereo unspecified) — 1.8-fold lower, 9.86 µM
- COc1ccc2c(c1)/C(=N/OC(C)=O)c1c-2cnc2ccccc12 — within 1.5-fold, 17.8 µM
- CCCCCCCCCCSC(=N)N — 3.5-fold lower, 4.92 µM
- O=C(/C=C/c1ccco1)c1ccc(Nc2nc(Nc3ccc(F)cc3)nc(Nc3ccc(F)cc3)n2)cc1 — 2.8-fold higher, 48.8 µM
- CN(C(=O)CNC(=O)/C=C/c1cccc(Cl)c1)C1CCS(=O)(=O)CC1 — 3.8-fold lower, 4.57 µM
- O=C(/C=C/c1cccc2ccccc12)Nc1ncc(Cc2ccccc2)s1 — 25-fold lower, 0.704 µM

Point of comparison: CCCCCCCCCCSC(=N)N, TGI 19.5 µM. Against it:
- COc1cccc2c1cc1c3c(cc4c(c32)OCO4)C(=O)N1 — 1.7-fold higher, 33.3 µM
- Cc1c(Cl)cccc1NC(=O)c1sc2nc3c(cc2c1N)CCCC3 — higher, > 100 µM
- O=C1/C(=C\c2ccccc2)C2OCC=C3CN4CCC56c7ccccc7N1C5C2C3CC46 (stereo unspecified) — higher, > 100 µM
- COc1ccc2c(c1)/C(=N/OC(C)=O)c1c-2cnc2ccccc12 — 1.7-fold higher, 33.2 µM
- O=C(/C=C/c1ccco1)c1ccc(Nc2nc(Nc3ccc(F)cc3)nc(Nc3ccc(F)cc3)n2)cc1 — higher, > 100 µM
- O=C(NOCCO)c1cc(CN2OCCCC2=O)c(F)c(F)c1Nc1ccc(I)cc1F — higher, > 92.2 µM
- CN(C(=O)CNC(=O)/C=C/c1cccc(Cl)c1)C1CCS(=O)(=O)CC1 — higher, > 100 µM
- O=C(/C=C/c1cccc2ccccc12)Nc1ncc(Cc2ccccc2)s1 — 6-fold lower, 3.27 µM
- CCCN1CCC=C(c2ccc(Nc3nc(Nc4ccccc4C(N)=O)c4cc[nH]c4n3)c(C)c2)C1 — higher, > 25 µM

For Cn1cc(-c2nc(N[C@@H]3CCCC[C@@H]3N)c(F)c3c2C(=O)NC3)cn1, the GI50 was 3.99 µM and 6.36 µM.
O=C(NOCCO)c1cc(CN2OCCCC2=O)c(F)c(F)c1Nc1ccc(I)cc1F was tested, and the GI50 was 15.7 µM and > 10 µM.

In the case of Cn1cc(-c2nc(N[C@@H]3CCCC[C@@H]3N)c(F)c3c2C(=O)NC3)cn1, the TGI is reported as 22.1 µM and > 52.4 µM.
